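Grown in 96-well plates, cells were treated for 48 hours with each compound at five concentrations. Insufficient inhibition: endpoint recorded as highest concentration tested. GI50 is the concentration that inhibits growth by half.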 The source made the active and inactive calls. No stated cut-off is given here; in the data, active = GI50 up to about 1.1 µM and inactive = higher.
Tests used:
Assay in all cases: growth of human tumour cells (NCI), 48 h
[1] = tested on: OVCAR-8
[2] = tested on: OVCAR-3
[3] = tested on: OVCAR-5
[4] = tested on: SW-620
[5] = tested on: RPMI-8226
[6] = tested on: Hs-578T
[7] = tested on: PC-3
[8] = tested on: M14
[9] = tested on: SF-295
[10] = tested on: SF-268
[11] = tested on: HOP-62
[12] = tested on: NCI-H460
[13] = tested on: NCI-H23
[14] = tested on: OVCAR-4
[15] = tested on: T47D
[16] = tested on: HOP-92
[17] = tested on: UACC-62
[18] = tested on: CAKI-1
[19] = tested on: SK-MEL-5
[20] = tested on: K562

With `COc1cccc(N2N=C3c4ccccc4-n4c(nc5ccccc54)C3C2N)c1` (stereo unspecified) as the molecule, how does the GI50 [1] read?
Its GI50 is > 100 µM (inactive).

And the GI50 [2]?
The GI50 was > 100 µM (inactive).

What about the GI50 [3] of the same molecule?
Its GI50 is 47.2 µM (inactive).

And the GI50 [4]?
The GI50 was > 100 µM (inactive).

What about the GI50 [5] of the same molecule?
Its GI50 is > 100 µM (inactive).

What about the GI50 [6] of the same molecule?
The GI50 was > 100 µM (inactive).

And the GI50 [7]?
Its GI50 is > 100 µM (inactive).

What about the GI50 [8] of the same molecule?
The GI50 was 34.1 µM (inactive).

And the GI50 [9]?
The GI50 was > 100 µM (inactive).

And the GI50 [10]?
The GI50 was > 100 µM (inactive).

What about the GI50 [11] of the same molecule?
The GI50 was > 100 µM (inactive).

What about the GI50 [12] of the same molecule?
The GI50 was > 100 µM (inactive).

And the GI50 [13]?
The GI50 was > 100 µM (inactive).

And the GI50 [14]?
Its GI50 is > 100 µM (inactive).

What about the GI50 [15] of the same molecule?
The GI50 was > 100 µM (inactive).

And the GI50 [16]?
Its GI50 is > 100 µM (inactive).

What about the GI50 [17] of the same molecule?
Its GI50 is > 100 µM (inactive).

What about the GI50 [18] of the same molecule?
Its GI50 is > 100 µM (inactive).

What about the GI50 [19] of the same molecule?
Its GI50 is 20.7 µM (inactive).

What does the source list for `CSc1nc(SC)c2c(C)cn(C3OC(C)C(O)C(O)C3O)c2n1` (stereo unspecified)?
GI50 [1]: 74.6 µM (inactive); GI50 [2]: 48.8 µM (inactive); GI50 [3]: > 100 µM (inactive); GI50 [4]: > 100 µM (inactive); GI50 [5]: 42.4 µM (inactive); GI50 [6]: 45.6 µM (inactive); GI50 [7]: 43.9 µM (inactive); GI50 [8]: 87.1 µM (inactive); GI50 [9]: 57 µM (inactive); GI50 [10]: 95.7 µM (inactive); GI50 [11]: > 100 µM (inactive); GI50 [12]: 43.1 µM (inactive); GI50 [13]: 94 µM (inactive); GI50 [14]: 64.1 µM (inactive); GI50 [15]: 34.1 µM (inactive); GI50 [16]: 32.6 µM (inactive); GI50 [17]: 76.6 µM (inactive); GI50 [18]: < 0.01 µM (active); GI50 [19]: 63.4 µM (inactive)

For `CCOc1cc(CCNC)c2c(ccc3ccc(OC)c(O)c32)c1OC`, which GI50 [1] is on record?
Its GI50 is 13.6 µM (inactive).

What about the GI50 [2] of the same molecule?
Its GI50 is 14.5 µM (inactive).

And the GI50 [3]?
The GI50 was 14.5 µM (inactive).

What about the GI50 [5] of the same molecule?
Its GI50 is 12.4 µM (inactive).

What about the GI50 [6] of the same molecule?
Its GI50 is 17.4 µM (inactive).

And the GI50 [7]?
Its GI50 is 13.2 µM (inactive).

And the GI50 [8]?
Its GI50 is 13.9 µM (inactive).

And the GI50 [9]?
The GI50 was 16.2 µM (inactive).

And the GI50 [10]?
The GI50 was 18 µM (inactive).

And the GI50 [11]?
The GI50 was 20.3 µM (inactive).

And the GI50 [12]?
Its GI50 is 14.1 µM (inactive).

What about the GI50 [13] of the same molecule?
Its GI50 is 11.7 µM (inactive).

What about the GI50 [14] of the same molecule?
Its GI50 is 13.7 µM (inactive).

And the GI50 [15]?
Its GI50 is 21.7 µM (inactive).

What about the GI50 [20] of the same molecule?
Its GI50 is 17 µM (inactive).

And the GI50 [16]?
Its GI50 is 12.1 µM (inactive).

And the GI50 [17]?
Its GI50 is 15.8 µM (inactive).

What about the GI50 [18] of the same molecule?
The GI50 was 17.5 µM (inactive).

What about the GI50 [19] of the same molecule?
Its GI50 is 11.8 µM (inactive).

Which GI50 [1] does the source give for `CC(C)C1(NC(=O)C2CC3c4cccc5[nH]cc(c45)CC3N(C)C2)OC2(O)C3CCCN3C(=O)C(Cc3ccccc3)N2C1=O` (stereo unspecified) here?
The GI50 was 42.4 µM (inactive).

What about the GI50 [2] of the same molecule?
Its GI50 is 16.2 µM (inactive).

And the GI50 [3]?
Its GI50 is > 100 µM (inactive).

What about the GI50 [4] of the same molecule?
Its GI50 is 32.3 µM (inactive).

What about the GI50 [5] of the same molecule?
The GI50 was 4.44 µM (inactive).

And the GI50 [6]?
Its GI50 is 27.6 µM (inactive).

And the GI50 [7]?
Its GI50 is 5.62 µM (inactive).

What about the GI50 [8] of the same molecule?
Its GI50 is 42.7 µM (inactive).

What about the GI50 [9] of the same molecule?
Its GI50 is 16.7 µM (inactive).

And the GI50 [10]?
The GI50 was > 100 µM (inactive).

And the GI50 [11]?
The GI50 was > 100 µM (inactive).

What about the GI50 [12] of the same molecule?
Its GI50 is 19.2 µM (inactive).

And the GI50 [13]?
Its GI50 is 30.5 µM (inactive).

And the GI50 [14]?
Its GI50 is 53.5 µM (inactive).

And the GI50 [15]?
The GI50 was 11.9 µM (inactive).

What about the GI50 [16] of the same molecule?
Its GI50 is 18.6 µM (inactive).

What about the GI50 [17] of the same molecule?
Its GI50 is 65.8 µM (inactive).

What about the GI50 [18] of the same molecule?
The GI50 was 26 µM (inactive).

What about the GI50 [19] of the same molecule?
Its GI50 is 27.7 µM (inactive).

Which GI50 [1] does the source give for `O=C(NCCc1n[nH]c2c1C(=O)C=C(Nc1ccccc1)C2=O)OCc1ccccc1` here?
Its GI50 is > 100 µM (inactive).

What about the GI50 [2] of the same molecule?
Its GI50 is > 100 µM (inactive).

What about the GI50 [3] of the same molecule?
Its GI50 is > 100 µM (inactive).

What about the GI50 [4] of the same molecule?
Its GI50 is > 100 µM (inactive).

What about the GI50 [5] of the same molecule?
Its GI50 is > 100 µM (inactive).

What about the GI50 [6] of the same molecule?
Its GI50 is > 100 µM (inactive).

What about the GI50 [7] of the same molecule?
Its GI50 is > 100 µM (inactive).

And the GI50 [8]?
Its GI50 is > 100 µM (inactive).

What about the GI50 [9] of the same molecule?
The GI50 was > 100 µM (inactive).

And the GI50 [10]?
The GI50 was > 100 µM (inactive).

And the GI50 [12]?
The GI50 was > 100 µM (inactive).

And the GI50 [13]?
The GI50 was > 100 µM (inactive).

And the GI50 [14]?
The GI50 was 66.4 µM (inactive).

And the GI50 [15]?
The GI50 was 53.8 µM (inactive).

And the GI50 [16]?
Its GI50 is > 100 µM (inactive).

And the GI50 [17]?
The GI50 was 8.09 µM (inactive).

What about the GI50 [18] of the same molecule?
The GI50 was > 100 µM (inactive).

And the GI50 [19]?
Its GI50 is > 100 µM (inactive).

What does the source list for `COC1C(O)C(C)OC(OC2C(Oc3cccc4c(O)c5c(=O)oc6ccc(C)c7c(=O)oc(c34)c5c67)OC(C)C3O[C@H](c4ccccc4)OC32)C1O` (stereo partly specified)?
GI50 [1]: 0.034 µM (active); GI50 [2]: 0.195 µM (active); GI50 [3]: 1.48 µM (inactive); GI50 [4]: 0.0631 µM (active); GI50 [5]: 0.0796 µM (active); GI50 [6]: 0.531 µM (active); GI50 [7]: 0.361 µM (active); GI50 [8]: 0.851 µM (active); GI50 [9]: 0.103 µM (active); GI50 [10]: 0.135 µM (active); GI50 [11]: 0.0441 µM (active); GI50 [12]: 0.0195 µM (active); GI50 [14]: 1.3 µM (inactive); GI50 [15]: 0.196 µM (active); GI50 [16]: 1.23 µM (inactive); GI50 [17]: 0.14 µM (active); GI50 [18]: 0.207 µM (active); GI50 [19]: 0.131 µM (active)

How did the GI50 [1] turn out when `CCC(=O)O[C@H]1CC[C@H]2[C@@H]3CCC4=C/C(=N/OC(=O)c5cccc6cc7ccccc7nc56)CC[C@]4(C)[C@H]3CC[C@]12C` was run?
Its GI50 is 42.3 µM (inactive).

What about the GI50 [2] of the same molecule?
Its GI50 is 29 µM (inactive).

And the GI50 [3]?
Its GI50 is > 100 µM (inactive).

What about the GI50 [4] of the same molecule?
The GI50 was 65.8 µM (inactive).

What about the GI50 [5] of the same molecule?
Its GI50 is 50.4 µM (inactive).

And the GI50 [6]?
The GI50 was 39.6 µM (inactive).

And the GI50 [7]?
The GI50 was 29 µM (inactive).

And the GI50 [8]?
The GI50 was 64.1 µM (inactive).

And the GI50 [10]?
The GI50 was > 100 µM (inactive).

What about the GI50 [11] of the same molecule?
Its GI50 is 50.5 µM (inactive).

What about the GI50 [12] of the same molecule?
Its GI50 is 39.1 µM (inactive).

What about the GI50 [13] of the same molecule?
The GI50 was 52.8 µM (inactive).

And the GI50 [14]?
Its GI50 is 76 µM (inactive).

And the GI50 [15]?
The GI50 was 21.9 µM (inactive).

What about the GI50 [20] of the same molecule?
The GI50 was > 100 µM (inactive).

And the GI50 [16]?
Its GI50 is > 100 µM (inactive).

And the GI50 [17]?
Its GI50 is 27.8 µM (inactive).

And the GI50 [18]?
Its GI50 is > 100 µM (inactive).

And the GI50 [19]?
Its GI50 is 15.2 µM (inactive).
